Experimental data reported in ChEMBL document CHEMBL1157204, “Synthesis and structure-activity relationship of histone deacetylase (HDAC) inhibitors with triazole-linked cap group” (Bioorg Med Chem, 2008).

Tests used:
[1] = molecular target: Histone deacetylase; assay: Inhibition of human HDAC in HeLa cells by flour de lys assay; type: cell-based
[2] = tested on: DU-145; assay: Viability of human DU145 cells after 72 hrs by trypan blue staining; type: functional, cell-based; details: DU-145, 72 h
[3] = tested on: DU-145; assay: Viability of human DU145 cells after 72 hrs by MTS assay; type: functional, cell-based; details: DU-145, 72 h

Row | IC50 [1] [nM] | EC50 [2] [nM] | EC50 [3] [nM] | SMILES
1 | 43.4 | – | – | Cc1ccc(-c2cn(CCCCCC(=O)NO)nn2)cc1
2 | 2.3 | 4720 | 3070 | O=C(CCCCCn1cc(-c2ccc(-c3ccncc3)cc2)nn1)NO
3 | 106.1 | – | – | CN(C)c1ccc(-c2cn(CCCCCCC(=O)NO)nn2)cc1
4 | 13.9 | – | – | COc1cccc(-c2cn(CCCCCC(=O)NO)nn2)c1
5 | 17.4 | – | – | Cc1ccccc1-c1cn(CCCCCC(=O)NO)nn1
6 | 23.9 | – | – | O=C(CCCCCCn1cc(-c2ccccn2)nn1)NO
7 | 1.9 | – | – | O=C(CCCCCn1cc(-c2cccc(-c3ccccc3)c2)nn1)NO
8 | 52.4 | – | – | O=C(CCCCCn1cc(-c2ccc(-c3ccccc3)cc2)nn1)NO
9 | 2.09 | – | – | COc1ccc(-c2cn(CCCCCC(=O)NO)nn2)cc1
10 | 112.5 | – | – | O=C(CCCCCn1cc(-c2ccncc2)nn1)NO
11 | 15.3 | 7760 | 3990 | COc1ccc2cc(-c3cn(CCCCCCC(=O)NO)nn3)ccc2c1
12 | 162.6 | – | – | O=C(CCCCCn1cc(-c2ccccc2-c2ccccc2)nn1)NO
13 | 31.9 | – | – | Cc1cccc(-c2cn(CCCCCC(=O)NO)nn2)c1
14 | 14.2 | – | – | O=C(CCCCCn1cc(-c2ccccc2)nn1)NO
15 | 1.8 | 3950 | 2600 | COc1ccc2cc(-c3cn(CCCCCC(=O)NO)nn3)ccc2c1
16 | 2.1 | 2250 | 2460 | O=C(CCCCCn1cc(-c2ccc3ccccc3n2)nn1)NO
17 | 287.2 | – | – | O=C(CCCCCn1cc(-c2cccnc2)nn1)NO
18 | 5.4 | – | – | O=C(CCCCCCn1cc(-c2cccc(-c3ccccc3)c2)nn1)NO
19 | 76 | – | – | COc1ccccc1-c1cn(CCCCCC(=O)NO)nn1
20 | 16.6 | – | – | O=C(CCCCCCn1cc(-c2ccc(-c3ccncc3)cc2)nn1)NO
21 | 151.5 | – | – | O=C(CCCCCn1cc(-c2ccc3cccnc3c2)nn1)NO
22 | 4.3 | – | – | CN(C)c1ccc(-c2cn(CCCCCC(=O)NO)nn2)cc1
23 | 31.7 | – | – | O=C(CCCCCn1cc(-c2cccs2)nn1)NO
24 | – | 2120 | – | O=C(CCCCCCC(=O)Nc1ccccc1)NO [VORINOSTAT]
25 | 9.6 | – | – | O=C(CCCCCCn1cc(-c2ccccc2)nn1)NO
26 | 315.9 | – | – | COc1cccc(OC)c1-c1cn(CCCCCC(=O)NO)nn1
